In data set [1] the test system is Homo sapiens. The data set is described as follows: Total biliary clearance in iv dosed human after 6 hrs by T-tube method. Format: ADME, organism-based, Bile. Particulars: in vivo.
Data set [2] relates to Homo sapiens. The data set is described as follows: Unbound biliary clearance in iv dosed human after 6 hrs. Format: ADME, organism-based, Bile. Conditions: in vivo.
For data set [3], the system named is Rattus norvegicus. The data set is described as follows: Total biliary clearance in iv dosed Wistar rat. The class given is ADME, organism-based, Bile. Conditions: in vivo.
In data set [4] the test system is Rattus norvegicus. Description: Unbound biliary clearance in iv dosed Wistar rat. Particulars: in vivo. Format: ADME, organism-based, Bile.
A short description of data set [5]: Drug excretion in iv dosed Wistar rat assessed as compound excreted into bile. Format: ADME, organism-based. Particulars: read-out: Drug excretion.
Data set [6] can be described thus: Drug excretion in iv dosed human assessed as compound excreted into bile after 6 hrs. Format: ADME, organism-based. Conditions: read-out: Drug excretion.
In data set [7] the test system is Homo sapiens. The data set is described as follows: Total biliary clearance in human at 200 mg, po after 24 hrs by T-tube method. Conditions: in vivo. Format: ADME, organism-based, Bile.
Data set [8] concerns Homo sapiens. The data set is described as follows: Unbound biliary clearance in human at 200 mg, po after 24 hrs by T-tube method. Conditions: in vivo. Format: ADME, organism-based, Bile.
Data set [9] deals with Rattus norvegicus. The data set is described as follows: Total biliary clearance in iv dosed rat. Conditions: in vivo. Format: ADME, organism-based, Bile.
In data set [10] the test system is Rattus norvegicus. The data set is described as follows: Unbound biliary clearance in iv dosed rat. The class given is ADME, organism-based, Bile. Conditions: in vivo.
Data set [11] is described as follows: Drug excretion in iv dosed rat assessed as compound excreted into bile. Format: ADME, organism-based. Particulars: read-out: Drug excretion.
Data set [12] can be described thus: Drug excretion in human assessed as compound excreted into bile at 200 mg, po after 24 hrs by T-tube method. Conditions: read-out: Drug excretion. Format: ADME, organism-based.
A short description of data set [13]: Drug excretion in iv dosed dog assessed as compound excreted into bile. The class given is ADME, organism-based, Canis lupus familiaris. Conditions: read-out: Drug excretion.
Data set [14] is described as follows: Drug excretion in iv dosed human assessed as compound excreted into bile by T-tube method. Format: ADME, organism-based. Conditions: read-out: Drug excretion.
The subject of data set [15] is Homo sapiens. Description: Total biliary clearance in iv dosed human after 7 hrs by duodenal perfusion method. The class given is ADME, organism-based, Bile. Conditions: in vivo.
For data set [16], the system named is Homo sapiens. Description: Unbound biliary clearance in iv dosed human after 7 hrs by duodenal perfusion method. Format: ADME, organism-based, Bile. Conditions: in vivo.
In data set [17] the test system is Canis familiaris. The data set is described as follows: Total biliary clearance in iv dosed dog. The class given is ADME, organism-based, Canis lupus familiaris, Bile. Particulars: in vivo.
Data set [18] has as its system Canis familiaris. Description: Unbound biliary clearance in iv dosed dog. The class given is ADME, organism-based, Canis lupus familiaris, Bile. Conditions: in vivo.
Data set [19] in a line: Drug excretion in iv dosed human assessed as compound excreted into bile after 7 hrs by duodenal perfusion method. The class given is ADME, organism-based. Conditions: read-out: Drug excretion.

Turning to `Cn1nnnc1SCC1=C(C(=O)O)N2C(=O)[C@@H](NC(=O)[C@H](O)c3ccccc3)[C@H]2SC1` [CEFAMANDOLE], the CL came to 0.012 mL/min/kg in the data set on Homo sapiens [1] and 5 mL/min/kg with Rattus norvegicus [3]. Further, the values for the CL free in the data set with Homo sapiens [2] and with Rattus norvegicus [4] were 0.048 mL/min/kg and 29.41 mL/min/kg, respectively. Further, in data set [5], the dose excreted is 33%. For the same compound, in [6], the dose excreted at 6 h is 0.4%.
Consider `C=CC1=C(C(=O)O)N2C(=O)[C@@H](NC(=O)/C(=N\OCC(=O)O)c3csc(N)n3)[C@H]2SC1` [CEFIXIME], for which the CL was 0.14 mL/min/kg in the data set with Homo sapiens [7] and 1 mL/min/kg in the data set on Rattus norvegicus [9]. In addition, the CL free in the data set on Homo sapiens [8] came out at 0.452 mL/min/kg; in the data set on Rattus norvegicus [10], 7.143 mL/min/kg. The dose excreted in data set [11] came out at 41%. For the same compound, in [12], the dose excreted at 24 h was 11%.
On to `Cc1nnc(SCC2=C(C(=O)O)N3C(=O)[C@@H](NC(=O)Cn4cnnn4)[C@H]3SC2)s1` [CEFAZOLIN], for which the dose excreted in data set [11] stood at 30%; in data set [13] it was 2%; in [14], 0.1%.
Regarding `CO[C@@]1(NC(=O)C2SC(=C(C(N)=O)C(=O)O)S2)C(=O)N2C(C(=O)O)=C(CSc3nnnn3C)CS[C@@H]21` (some centres undefined) [CEFOTETAN], the CL was 0.048 mL/min/kg in the data set on Homo sapiens [15], 6.14 mL/min/kg in the data set on Rattus norvegicus [9] and 0.696 mL/min/kg in the data set on Canis familiaris [17]. Besides, the figures for the CL free in the data set on Homo sapiens [16], in the data set on Rattus norvegicus [10] and in the data set on Canis familiaris [18] were 0.32 mL/min/kg, 8.771 mL/min/kg and 1.141 mL/min/kg, respectively. In addition, in data set [19], the dose excreted at 7 h worked out at 11%. Also, the dose excreted in [11] came to 48%; in data set [13] it was 17%.

Values taken from ChEMBL document CHEMBL3526096, “Species differences in biliary clearance and possible relevance of hepatic uptake and efflux transporters involvement” (Drug Metab Dispos, 2013).
